# From US20050010368A1, “Method for the prediction of binding targets and the design of ligands” (priority 1997, published 2005)
# Read-outs that look alike come from different tables or passages of the source.
# Experiments:
# endothiapepsin [1] = target: T1, endothiapepsin (Cryphonectria parasitica, UniProt P11838); settings: relative to wild type pepstatin A
# Source text: In all cases, the coordinate sets for the complexes between the protein and the mutated peptides are generated by using the coordinates of the wild type complex as a template. Replacement mutants are created by replacing the original side chain with the desired mutation, leaving the backbone in the original conformation. For mutations that involve the addition of an extra amino acid at either end of the peptide chain, the backbone torsional angles are also included in the minimization.
# The inhibitor contains two residues of the unusual amino acid statine (Sta: 4(S)-amino-3(S)-hydroxy-6methylheptanoic acid). […] Two different mutations of pepstatin A were studied. […] Twelve possible mutations at this position were considered (Cys, Gly, His, Ile, Leu, Met, Phe, Ser, Thr, Trp, Tyr, Val). For each of these mutations, the most probable conformation was identified. In the second case, the addition of an amino acid at the carboxy terminus of pepstatin A was considered. In this case, a simultaneous optimization of side chain and backbone conformations was performed in order to identify the most probable conformation.
# endothiapepsin [2] = target: T1, endothiapepsin; type: biochemical
# Source text: The ΔΔG values are relative to the wild type. […] To test the structure-based thermodynamic prediction, the A5F mutant of pepstatin A was synthesized and the overall inhibition constant determined experimentally.
# [3] = target: T2, V82A mutant HIV-1 protease (Human immunodeficiency virus type 1 group M subtype B, UniProt P04585, V570A); settings: V82A mutant vs wild type; Baldwin et al., 1995; cited from earlier work
# T2 construct: the complex of A77003 with the V82A mutant HIV-1 protease
# HIV-1 protease = HIV-1 protease (Human immunodeficiency virus type 1 group M subtype B, UniProt P04585); assay: Structure-based thermodynamic calculation of inhibitor binding to HIV-1 protease
# Experimental: In all cases presented here the Gibbs energy of binding, ΔG, was calculated from the published crystallographic structures using procedures previously described (D'Aquino et al., 1996; Gomez et al., 1995(a); Gomez et al., 1995(b); Hilser et al., 1996(b); Luque et al., 1996). These calculations require the structures of the complex as well as the structures of the unligated protein and unligated inhibitor. In this approach, the generic portion of the Gibbs energy, ΔGgen, is calculated from a separate computation of its enthalpy and entropy components. […]
# The most significant structural/solvation contributions to the total free energy of binding are contained in the term […] which is calculated by estimating separately its enthalpy and entropy components. […]
# The changes in accessible surface areas were calculated by implementing the Lee and Richards algorithm (Lee et al., 1971). […]
# In binding or folding, the bulk of the enthalpy change originates from the formation of internal interactions (van der Waals, hydrogen bonds, etc.) and the parallel desolvation of the interacting groups. […] For example, it has been shown that for binding processes in which protons are either released or absorbed the measured enthalpy depends on the ionization enthalpy of the buffer (Gomez et al., 1995(b)). […]
# endothiapepsin [4] = target: T1, endothiapepsin
# Source text: The second mutation considered in this study involved the addition of an amino acid at the carboxy terminus of the peptide.
# endothiapepsin [5] = target: T1, endothiapepsin; settings: reference cited, cited from earlier work
# T1 sequence (P11838 90-419): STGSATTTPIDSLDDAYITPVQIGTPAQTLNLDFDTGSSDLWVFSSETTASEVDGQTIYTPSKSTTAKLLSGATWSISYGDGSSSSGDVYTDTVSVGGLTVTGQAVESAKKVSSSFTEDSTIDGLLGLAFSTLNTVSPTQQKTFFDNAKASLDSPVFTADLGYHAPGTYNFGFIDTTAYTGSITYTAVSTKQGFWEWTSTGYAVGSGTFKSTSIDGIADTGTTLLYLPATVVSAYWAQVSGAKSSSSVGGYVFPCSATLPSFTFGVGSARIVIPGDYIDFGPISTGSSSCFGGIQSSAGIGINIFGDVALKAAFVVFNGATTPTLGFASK
molecule,measurement,setting,value
Iva-Val-Val-Sta-Phe-Sta,Gibbs energy of binding more favorable than the wild type,endothiapepsin [1],about 1 kcal/mol
same,binding affinity relative to wild type pepstatin A,endothiapepsin [2],higher affinity
same,deviation of ΔG from its predicted value,endothiapepsin [2],0.2 kcal/mol
same,ΔG(25)exp,endothiapepsin [2],-13.3 kcal/mol
CC(C)[C@H](NC(=O)N(C)Cc1ccccn1)C(=O)N[C@@H](Cc1ccccc1)[C@H](O)[C@H](O)[C@H](Cc1ccccc1)NC(=O)[C@@H](NC(=O)N(C)Cc1ccccn1)C(C)C [A77003],reduction in binding affinity measured experimentally,[3],4 fold
CC(C)CN(C[C@@H](O)[C@H](Cc1ccccc1)NC(=O)O[C@H]1CCOC1)S(=O)(=O)c1ccc(N)cc1 [VX478],ΔΔG,HIV-1 protease,-0.563 kcal/mol
Iva-Val-Val-Sta-Ala-Sta-Glu,binding affinity relative to wild type pepstatin A,endothiapepsin [2],lower affinity
same,ΔG(25)exp,endothiapepsin [2],-11.3 kcal/mol
same,enthalpy change (ΔH) of binding,"endothiapepsin [4]; 16° C., calorimetric",-4.6 ± 0.1 kcal/mol
same,heat capacity change (ΔCp),endothiapepsin [4]; from temperature dependence of the binding enthalpy change,−260±20 cal/K•mol
Iva-Val-Val-Sta-Ala-Sta [Pepstatin A],ΔG(25)exp,endothiapepsin [2]; experimental binding Gibbs energy at 25° C.,-12.7 kcal/mol
same,ΔH of binding,endothiapepsin [5]; measured under the same conditions (16° C.),-4.1 kcal/mol
same,ΔCp of binding,endothiapepsin [5]; measured under the same conditions,−310 cal/K•mol
